Test results: patent US6407288B1, “Naphthylsalicylanilides as antimicrobial and antiinflammatory agents” (The Research Foundation of State University of New York, priority 2000, dated 2002)

Columns and labels:
S. mutans = assay: MIC microdilution, gram positive; format: cell-based, Streptococcus mutans; conditions: Table 1, Gram Positive
Method: (§1) The MIC's for the compounds were determined by a modified microdilution tube dilution method described in “Methods for Dilution Antimicrobial Susceptibility Tests for Bacteria that Grow Aerobically” (National Committee for Clinical Laboratory Standards Approved Standards, 1997, NCCLS document M7-A4). In general the modifications were made because of the unique growth requirements for the fastidious oral organisms and for those bacteria that require anaerobic conditions. Reference is also made to “Methods for Antimicrobial Susceptibility of Anaerobic Bacteria” (National Committee for Clinical Laboratory Standards Approved Standards, 1997, NCCLS document M11-A4). Briefly, the methods were as follows. Cultures were grown for 18-24hrs (aerobic bacteria) or 48-72 hrs (anaerobic bacteria) in the appropriate medium. For aerobic bacteria full strength brain heart infusion medium (BHI, Difco) was used. For anaerobic bacteria, half strength BHI (18.5 g/L) was supplemented by adding yeast extract (10 g/L), hemin (0.29 mL of a stock solution containing 0.1 g/200 mL dH2O) and menadione (15 mL of a stock solution containing 0.15 mL in 30 mL 95% EtOH) was used. Initial cultures were diluted to approximately 1×10^8 CFU/mL for use as an inoculum. Each assay received 10 μL of the inoculum. The drugs were prepared from a stock solution contained in dimethyl sulfoxide (DMSO) and diluted into the culture medium. Final concentrations of the drugs ranged from 50 to 0.05 μg/assay. The tests were run in duplicate and were incubated appropriately with regard to oxygen requirements for 24 to 48 hrs as required. Anaerobic incubation was an atmosphere of 5% CO2, 10% H2, with the balance N2. The lowest concentration of an antimicrobial agent at which no visible growth is noted was referred to as the MIC.

S. sanguis = assay: MIC microdilution, gram positive; format: cell-based, Streptococcus sanguis; conditions: Table 1, Gram Positive
Method: as §1

S.salivarius = assay: MIC microdilution, gram positive; format: cell-based, Streptococcus salivarius; conditions: Table 1, Gram Positive
Method: as §1

P. acnes 11828 = assay: MIC microdilution, gram positive; format: cell-based, Propionibacterium acnes; conditions: Table 1, Gram Positive
Method: as §1

P. acnes 6922 = assay: MIC microdilution, gram positive; format: cell-based, Propionibacterium acnes; conditions: Table 1, Gram Positive
Method: as §1

A. viscosus = assay: MIC microdilution, gram positive; format: cell-based, Actinomyces viscosus; conditions: Table 2, Gram Positive
Method: as §1

S. aureus = assay: MIC microdilution, gram positive; format: cell-based, Staphlococcus aureus
Method: (§2) The MIC's for the compounds were determined by a modified microdilution tube dilution method described in “Methods for Dilution Antimicrobial Susceptibility Tests for Bacteria that Grow Aerobically” (National Committee for Clinical Laboratory Standards Approved Standards, 1997, NCCLS document M7-A4). In general the modifications were made because of the unique growth requirements for the fastidious oral organisms and for those bacteria that require anaerobic conditions. Reference is also made to “Methods for Antimicrobial Susceptibility of Anaerobic Bacteria” (National Committee for Clinical Laboratory Standards Approved Standards, 1997, NCCLS document M11-A4).
(§3) Briefly, the methods were as follows. Cultures were grown for 18-24hrs (aerobic bacteria) or 48-72 hrs (anaerobic bacteria) in the appropriate medium. For aerobic bacteria full strength brain heart infusion medium (BHI, Difco) was used. For anaerobic bacteria, half strength BHI (18.5 g/L) was supplemented by adding yeast extract (10 g/L), hemin (0.29 mL of a stock solution containing 0.1 g/200 mL dH2O) and menadione (15 mL of a stock solution containing 0.15 mL in 30 mL 95% EtOH) was used. Initial cultures were diluted to approximately 1×10^8 CFU/mL for use as an inoculum. Each assay received 10 μL of the inoculum. The drugs were prepared from a stock solution contained in dimethyl sulfoxide (DMSO) and diluted into the culture medium. Final concentrations of the drugs ranged from 50 to 0.05 μg/assay. The tests were run in duplicate and were incubated appropriately with regard to oxygen requirements for 24 to 48 hrs as required. Anaerobic incubation was an atmosphere of 5% CO2, 10% H2, with the balance N2. The lowest concentration of an antimicrobial agent at which no visible growth is noted was referred to as the MIC.
(§4) This embodiment describes the sensitivity of various staphylococcus strains to the compounds of the present invention. The staphylococcus species R is a strain 00-045-1209 from the Children's Hospital in Buffalo. It was isolated from the peritoneal cavity (fluid culture) of an individual. It was coagulase negative. The sensitivity of this strain was tested agaisnt several known antibiotics.

Lact 7496 = assay: MIC microdilution, gram positive; format: cell-based, Lactobacillus rhamnosus (casei); conditions: Table 2, Gram Positive
Method: as §1

M. luteus = assay: MIC microdilution, gram positive; format: cell-based, Micrococcus luteus; conditions: Table 2, Gram Positive
Method: as §1

Fuso. 25586 = assay: MIC microdilution, gram negative; format: cell-based, Fusobacterium nucleatum
Method: (§5) The MIC's for the compounds were determined by a modified microdilution tube dilution method described in “Methods for Dilution Antimicrobial Susceptibility Tests for Bacteria that Grow Aerobically” (National Committee for Clinical Laboratory Standards Approved Standards, 1997, NCCLS document M7-A4). In general the modifications were made because of the unique growth requirements for the fastidious oral organisms and for those bacteria that require anaerobic conditions. Reference is also made to “Methods for Antimicrobial Susceptibility of Anaerobic Bacteria” (National Committee for Clinical Laboratory Standards Approved Standards, 1997, NCCLS document M11-A4). Briefly, the methods were as follows. Cultures were grown for 18-24hrs (aerobic bacteria) or 48-72 hrs (anaerobic bacteria) in the appropriate medium. For aerobic bacteria full strength brain heart infusion medium (BHI, Difco) was used. For anaerobic bacteria, half strength BHI (18.5 g/L) was supplemented by adding yeast extract (10 g/L), hemin (0.29 mL of a stock solution containing 0.1 g/200 mL dH2O) and menadione (15 mL of a stock solution containing 0.15 mL in 30 mL 95% EtOH) was used. Initial cultures were diluted to approximately 1×10^8 CFU/mL for use as an inoculum. Each assay received 10 μL of the inoculum. The drugs were prepared from a stock solution contained in dimethyl sulfoxide (DMSO) and diluted into the culture medium. Final concentrations of the drugs ranged from 50 to 0.05 μg/assay. The tests were run in duplicate and were incubated appropriately with regard to oxygen requirements for 24 to 48 hrs as required. Anaerobic incubation was an atmosphere of 5% CO2, 10% H2, with the balance N2. The lowest concentration of an antimicrobial agent at which no visible growth is noted was referred to as the MIC. […] The method used was the same as described in Example 1.

Aa Y4 = assay: MIC microdilution, gram negative; format: cell-based, Actinobacillus actinomycetemcomitans
Method: as §5

P. ging 381 = assay: MIC microdilution, gram negative; format: cell-based, Porphyromonas gingivalis
Method: as §5

Pg 53977 = assay: MIC microdilution, gram negative; format: cell-based, Porphyromonas gingivalis
Method: as §5

B. fragilis = assay: MIC microdilution, gram negative; format: cell-based, Bacteroides fraglis
Method: as §5

Str. pn. R = assay: Mean Streptococcus MIC; format: cell-based; conditions: Table 5, mean; strain resistant to penicillin and erythromycin
Method: as §2, §3
(§6) This embodiment illustrates the efficacy of the compounds of the present invention against Streptococcus strains. One of the strains, Str.pn.R was obtained from the Children's Hospital in Buffalo (strain 00-041-0614). […] The sensitivity of this strain was tested against several known antibiotics.

Str. pn = assay: Mean Streptococcus MIC; format: cell-based; conditions: Table 5, mean
Method: as §2, §3, §6

Str. pyo = assay: Mean Streptococcus MIC; format: cell-based; conditions: Table 5, mean
Method: as §2, §3, §6

S. species R = assay: Staphylococcus MIC; format: cell-based, staphylococcus species R; conditions: second Table 5 (Example 5); strain 00-045-1209
Method: as §2, §3, §4

[1] = system: Str.pn.R (strain 00-041-0614); assay: Sensitivity of strain to known antibiotics; format: cell-based, Streptococcus; conditions: sensitive / resistant
Method: as §6

[2] = system: staphylococcus species R (strain 00-045-1209); assay: Sensitivity of strain to known antibiotics; format: cell-based; conditions: sensitive / resistant
Method: as §4

[3] = Table 3 printed a second time, Gram Negative

| MIC S. sanguis (S. sanguis) | MIC P. acnes 11828 (P. acnes 11828) | MIC P. acnes 6922 (P. acnes 6922) | MIC A. viscosus (A. viscosus) | MIC Lact 7496 (Lact 7496) | MIC M. luteus (M. luteus) | MIC P. ging 381 (P. ging 381; Table 3, Gram Negative) | MIC P. ging 381 (P. ging 381; [3]) | MIC Pg 53977 (Pg 53977; Table 3, Gram Negative) | MIC Pg 53977 (Pg 53977; [3]) | SMILES | MIC S. mutans (S. mutans) | MIC S.salivarius (S.salivarius) | MIC S. aureus (S. aureus; Table 2, Gram Positive) | MIC S. aureus (S. aureus; second Table 5 (Example 5)) | MIC Fuso. 25586 (Fuso. 25586; Table 3, Gram Negative) | MIC Fuso. 25586 (Fuso. 25586; [3]) | MIC Aa Y4 (Aa Y4; Table 3, Gram Negative) | MIC Aa Y4 (Aa Y4; [3]) | MIC B. fragilis (B. fragilis; Table 3, Gram Negative) | MIC B. fragilis (B. fragilis; [3]) | also measured |
| --- | --- | --- | --- | --- | --- | --- | --- | --- | --- | --- | --- | --- | --- | --- | --- | --- | --- | --- | --- | --- | --- |
| 6.3 micrograms/ml | 12.5 micrograms/ml | 6.3 micrograms/ml | 1.6 micrograms/ml | 12.5 micrograms/ml | 3.1 micrograms/ml | 0.8 micrograms/ml | 0.8 micrograms/ml | 0.8 micrograms/ml | 0.8 micrograms/ml | N#Cc1cccc(NC(=O)c2cc(C(=O)c3ccc4ccccc4c3)ccc2O)c1 [NA2mC] | 6.3 micrograms/ml | 50 micrograms/ml | NE (NE indicates that the drug was not effective at a concentration >50 micrograms/ml) | NE (NE indicates that the drug was not effective at a concentration >50 micrograms/ml) | NE (NE indicates that the drug was not effective at a concentration >50 micrograms/ml) | NE (NE indicates that the drug was not effective at a concentration >50 micrograms/ml) | NE (NE indicates that the drug was not effective at a concentration >50 micrograms/ml) | NE (NE indicates that the drug was not effective at a concentration >50 micrograms/ml) | 3.1 micrograms/ml | 3.1 micrograms/ml | Mean Streptococcus MIC values Str. pn. R (Str. pn. R): 6.25 micrograms/ml; Mean Streptococcus MIC values Str. pn (Str. pn): 0.91 micrograms/ml; Mean Streptococcus MIC values Str. pyo (Str. pyo): NE (NE indicates that the drug was not effective at a concentration >50 micrograms/ml); MIC S. species R (S. species R): NE (NE indicates that the drug was not effective at a concentration >50 micrograms/ml) |
| 12.5 micrograms/ml | 0.2 micrograms/ml | 0.4 micrograms/ml | 1.6 micrograms/ml | 3.1 micrograms/ml | 0.8 micrograms/ml | 0.4 micrograms/ml | 0.4 micrograms/ml | 0.4 micrograms/ml | 0.4 micrograms/ml | CCCCCCCCCCCCS(=O)(=O)c1ccc(O)c(C(=O)Nc2cccc(C(F)(F)F)c2)c1 [TMF-12, reference compound] | NE (NE indicates that the drug was not effective at a concentration >50 micrograms/ml) | NE (NE indicates that the drug was not effective at a concentration >50 micrograms/ml) | NE (NE indicates that the drug was not effective at a concentration >50 micrograms/ml) | NE (NE indicates that the drug was not effective at a concentration >50 micrograms/ml) | NE (NE indicates that the drug was not effective at a concentration >50 micrograms/ml) | NE (NE indicates that the drug was not effective at a concentration >50 micrograms/ml) | NE (NE indicates that the drug was not effective at a concentration >50 micrograms/ml) | NE (NE indicates that the drug was not effective at a concentration >50 micrograms/ml) | NE (NE indicates that the drug was not effective at a concentration >50 micrograms/ml) | NE (NE indicates that the drug was not effective at a concentration >50 micrograms/ml) | Mean Streptococcus MIC values Str. pn. R (Str. pn. R): 0.78 micrograms/ml; Mean Streptococcus MIC values Str. pn (Str. pn): 0.65 micrograms/ml; Mean Streptococcus MIC values Str. pyo (Str. pyo): 0.47 micrograms/ml; MIC S. species R (S. species R): NE (NE indicates that the drug was not effective at a concentration >50 micrograms/ml) |
|  |  |  |  |  |  |  |  |  |  | CC[C@H]1OC(=O)[C@H](C)[C@@H](O[C@H]2C[C@@](C)(OC)[C@@H](O)[C@H](C)O2)[C@H](C)[C@@H](O[C@@H]2O[C@H](C)C[C@H](N(C)C)[C@H]2O)[C@](C)(O)C[C@@H](C)C(=O)[C@H](C)[C@@H](O)[C@]1(C)O [erythromycin] |  |  |  |  |  |  |  |  |  |  | sensitivity of strain Str.pn.R to known antibiotics [1]: resistant; sensitivity of staphylococcus species R to known antibiotics [2]: resistant |
